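Where inhibition never reached the appropriate level, the endpoint shown equals the highest concentration tested. Otherwise, values were interpolated linearly from a five-concentration, 48-hour dose response in 96-well plates. GI50 = concentration required for 50% inhibition of growth.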 Activity calls are given as the source filed them. Cut-off read from the data, not from the text of the source: active = GI50 up to about 1.1 µM and inactive = higher. Peptide text beside a SMILES is read from it.
Assays:
Assay in all cases: NCI anticancer screen, dose series, 48 h
BT-549 = tested on: BT-549
ACHN = tested on: ACHN
K562 = tested on: K562
HCT-15 = tested on: HCT-15
UO-31 = tested on: UO-31
TK-10 = tested on: TK-10
Malme-3M = tested on: Malme-3M
A549 = tested on: A549
KM12 = tested on: KM12
HL-60 = tested on: HL-60
NCI-H460 = tested on: NCI-H460
OVCAR-4 = tested on: OVCAR-4
OVCAR-5 = tested on: OVCAR-5
HOP-62 = tested on: HOP-62
SR = tested on: SR
MCF7 = tested on: MCF7
M14 = tested on: M14
MDA-MB-435 = tested on: MDA-MB-435
SN12C = tested on: SN12C
RPMI-8226 = tested on: RPMI-8226
MOLT-4 = tested on: MOLT-4
PC-3 = tested on: PC-3
HOP-92 = tested on: HOP-92
COLO 205 = tested on: COLO 205
MDA-MB-231 = tested on: MDA-MB-231
SW-620 = tested on: SW-620
OVCAR-3 = tested on: OVCAR-3
SK-MEL-28 = tested on: SK-MEL-28
CAKI-1 = tested on: CAKI-1
T47D = tested on: T47D
SF-295 = tested on: SF-295
RXF 393 = tested on: RXF 393
EKVX = tested on: EKVX
SF-539 = tested on: SF-539
LOX IMVI = tested on: LOX IMVI
MDA-N = tested on: MDA-N
IGROV-1 = tested on: IGROV-1
NCI/ADR-RES = tested on: NCI/ADR-RES
HT-29 = tested on: HT-29
SNB-19 = tested on: SNB-19
DU-145 = tested on: DU-145
SK-MEL-5 = tested on: SK-MEL-5
UACC-257 = tested on: UACC-257
NCI-H226 = tested on: NCI-H226
OVCAR-8 = tested on: OVCAR-8
786-0 = tested on: 786-0
SF-268 = tested on: SF-268
NCI-H522 = tested on: NCI-H522
U-251 = tested on: U-251
UACC-62 = tested on: UACC-62
A498 = tested on: A498
SK-OV-3 = tested on: SK-OV-3
SNB-75 = tested on: SNB-75
NCI-H23 = tested on: NCI-H23
SK-MEL-2 = tested on: SK-MEL-2
Hs-578T = tested on: Hs-578T
CCRF-CEM = tested on: CCRF-CEM
HCT-116 = tested on: HCT-116

**Q.** What does the source list for `CC(=O)NC(CS)C(=O)NC(CO)C(=O)NC(CO)C(=O)NC(Cc1c[nH]c2ccccc12)C(=O)N1CCCC1C(=O)NC(CO)C(=O)NC(Cc1c[nH]c2ccccc12)C(=O)NC(Cc1c[nH]cn1)C(=O)NC(CO)C(=O)NC(Cc1c[nH]c2ccccc12)C(=O)NCC(=O)NCC(=O)NC(C)C(=O)NC(CCC(N)=O)C(=O)NC(CCCCN)C(=O)NC(C)C(=O)NC(CCCNC(=N)N)C(=O)NC(CCCCN)C(N)=O` (centres undefined) (Ac-CSSWPSWHSWGGAQKARK-NH2; configuration not given here)?
**A.** GI50 (BT-549): 14.4 µM (inactive); GI50 (ACHN): 17.7 µM (inactive); GI50 (K562): 10.3 µM (inactive); GI50 (HCT-15): 41.3 µM; GI50 (UO-31): > 50 µM (inactive); GI50 (TK-10): > 50 µM (inactive); GI50 (Malme-3M): 10.8 µM (inactive); GI50 (A549): > 50 µM (inactive); GI50 (KM12): 11.6 µM (inactive); GI50 (HL-60): 12.4 µM (inactive); GI50 (NCI-H460): 12.4 µM (inactive); GI50 (OVCAR-4): > 50 µM (inactive); GI50 (OVCAR-5): > 50 µM (inactive); GI50 (HOP-62): > 50 µM (inactive); GI50 (SR): 11.8 µM (inactive); GI50 (MCF7): 18.9 µM (inactive); GI50 (M14): 23.2 µM (inactive); GI50 (MDA-MB-435): 15.7 µM (inactive); GI50 (SN12C): 43 µM (inactive); GI50 (RPMI-8226): 39 µM (inactive); GI50 (MOLT-4): 29.8 µM (inactive); GI50 (PC-3): > 50 µM (inactive); GI50 (HOP-92): > 50 µM (inactive); GI50 (COLO 205): 12.8 µM (inactive); GI50 (MDA-MB-231): 8.49 µM (inactive); GI50 (SW-620): 23.4 µM (inactive); GI50 (OVCAR-3): > 50 µM (inactive); GI50 (SK-MEL-28): 11.1 µM (inactive); GI50 (CAKI-1): 11.9 µM (inactive); GI50 (T47D): 11 µM (inactive); GI50 (SF-295): > 50 µM (inactive); GI50 (RXF 393): 10 µM (inactive); GI50 (EKVX): 28.3 µM (inactive); GI50 (SF-539): 17.1 µM (inactive); GI50 (LOX IMVI): 46.3 µM (inactive); GI50 (MDA-N): 19.1 µM (inactive); GI50 (IGROV-1): > 50 µM (inactive); GI50 (NCI/ADR-RES): > 50 µM (inactive); GI50 (HT-29): > 50 µM (inactive); GI50 (SNB-19): > 50 µM (inactive); GI50 (DU-145): 16.8 µM (inactive); GI50 (SK-MEL-5): 11 µM (inactive); GI50 (UACC-257): 10 µM (inactive); GI50 (NCI-H226): > 50 µM (inactive); GI50 (OVCAR-8): 42.6 µM (inactive); GI50 (786-0): 10.1 µM (inactive); GI50 (SF-268): 16.7 µM (inactive); GI50 (NCI-H522): 20.5 µM (inactive); GI50 (U-251): 13 µM (inactive); GI50 (UACC-62): 10.9 µM (inactive); GI50 (A498): > 50 µM (inactive); GI50 (SK-OV-3): > 50 µM (inactive); GI50 (SNB-75): 13.9 µM (inactive); GI50 (NCI-H23): 14.8 µM (inactive); GI50 (SK-MEL-2): 26.4 µM (inactive); GI50 (Hs-578T): 29.2 µM (inactive); GI50 (CCRF-CEM): 17.7 µM (inactive); GI50 (HCT-116): 34 µM (inactive)

**Q.** Which GI50 (BT-549) does the source give for `O=[N+]([O-])c1ccc2nc3ccc([N+](=O)[O-])cn3c2c1` here?
**A.** Its GI50 is > 100 µM (inactive).

**Q.** What about the GI50 (ACHN) of the same compound?
**A.** The GI50 was > 100 µM (inactive).

**Q.** And the GI50 (K562)?
**A.** The GI50 was > 100 µM (inactive).

**Q.** What about the GI50 (HCT-15) of the same compound?
**A.** The GI50 was > 100 µM.

**Q.** What about the GI50 (UO-31) of the same compound?
**A.** The GI50 was 29.9 µM (inactive).

**Q.** And the GI50 (TK-10)?
**A.** The GI50 was 98.6 µM (inactive).

**Q.** What about the GI50 (Malme-3M) of the same compound?
**A.** The GI50 was 92.5 µM (inactive).

**Q.** And the GI50 (A549)?
**A.** Its GI50 is 39.1 µM (inactive).

**Q.** And the GI50 (KM12)?
**A.** The GI50 was > 100 µM (inactive).

**Q.** And the GI50 (HL-60)?
**A.** The GI50 was > 100 µM (inactive).

**Q.** And the GI50 (NCI-H460)?
**A.** Its GI50 is 43.3 µM (inactive).

**Q.** What about the GI50 (OVCAR-4) of the same compound?
**A.** The GI50 was 29.1 µM (inactive).

**Q.** And the GI50 (OVCAR-5)?
**A.** Its GI50 is 32.5 µM (inactive).

**Q.** And the GI50 (HOP-62)?
**A.** The GI50 was 17.6 µM (inactive).

**Q.** And the GI50 (SR)?
**A.** Its GI50 is > 100 µM (inactive).

**Q.** What about the GI50 (MCF7) of the same compound?
**A.** The GI50 was 63.7 µM (inactive).

**Q.** And the GI50 (M14)?
**A.** The GI50 was > 100 µM (inactive).

**Q.** What about the GI50 (MDA-MB-435) of the same compound?
**A.** The GI50 was > 100 µM (inactive).

**Q.** What about the GI50 (SN12C) of the same compound?
**A.** Its GI50 is 42.4 µM (inactive).

**Q.** And the GI50 (MOLT-4)?
**A.** Its GI50 is > 100 µM (inactive).

**Q.** And the GI50 (PC-3)?
**A.** The GI50 was > 100 µM (inactive).

**Q.** And the GI50 (HOP-92)?
**A.** Its GI50 is > 100 µM (inactive).

**Q.** And the GI50 (COLO 205)?
**A.** Its GI50 is > 100 µM (inactive).

**Q.** And the GI50 (MDA-MB-231)?
**A.** Its GI50 is 33 µM (inactive).

**Q.** And the GI50 (SW-620)?
**A.** The GI50 was > 100 µM (inactive).

**Q.** And the GI50 (SK-MEL-28)?
**A.** Its GI50 is > 100 µM (inactive).

**Q.** What about the GI50 (CAKI-1) of the same compound?
**A.** The GI50 was 33 µM (inactive).

**Q.** What about the GI50 (T47D) of the same compound?
**A.** Its GI50 is > 100 µM (inactive).

**Q.** What about the GI50 (SF-295) of the same compound?
**A.** Its GI50 is > 100 µM (inactive).

**Q.** And the GI50 (RXF 393)?
**A.** Its GI50 is 48.9 µM (inactive).

**Q.** And the GI50 (EKVX)?
**A.** Its GI50 is 29.4 µM (inactive).

**Q.** What about the GI50 (SF-539) of the same compound?
**A.** The GI50 was 52.6 µM (inactive).

**Q.** What about the GI50 (LOX IMVI) of the same compound?
**A.** Its GI50 is 85.1 µM (inactive).

**Q.** What about the GI50 (MDA-N) of the same compound?
**A.** The GI50 was > 100 µM (inactive).

**Q.** What about the GI50 (IGROV-1) of the same compound?
**A.** Its GI50 is 97.1 µM (inactive).

**Q.** And the GI50 (NCI/ADR-RES)?
**A.** The GI50 was > 100 µM (inactive).

**Q.** What about the GI50 (HT-29) of the same compound?
**A.** The GI50 was 83 µM (inactive).

**Q.** What about the GI50 (SNB-19) of the same compound?
**A.** The GI50 was 36.1 µM (inactive).

**Q.** And the GI50 (DU-145)?
**A.** The GI50 was 39.2 µM (inactive).

**Q.** What about the GI50 (SK-MEL-5) of the same compound?
**A.** Its GI50 is > 100 µM (inactive).

**Q.** What about the GI50 (UACC-257) of the same compound?
**A.** Its GI50 is > 100 µM (inactive).

**Q.** What about the GI50 (NCI-H226) of the same compound?
**A.** The GI50 was > 100 µM (inactive).

**Q.** And the GI50 (OVCAR-8)?
**A.** The GI50 was 39 µM (inactive).

**Q.** What about the GI50 (786-0) of the same compound?
**A.** The GI50 was 34.4 µM (inactive).

**Q.** What about the GI50 (SF-268) of the same compound?
**A.** The GI50 was 30.5 µM (inactive).

**Q.** What about the GI50 (NCI-H522) of the same compound?
**A.** The GI50 was 23.7 µM (inactive).

**Q.** And the GI50 (U-251)?
**A.** The GI50 was 36 µM (inactive).

**Q.** What about the GI50 (UACC-62) of the same compound?
**A.** Its GI50 is 86.3 µM (inactive).

**Q.** What about the GI50 (A498) of the same compound?
**A.** The GI50 was 20.7 µM (inactive).

**Q.** And the GI50 (SK-OV-3)?
**A.** Its GI50 is > 100 µM (inactive).

**Q.** What about the GI50 (SNB-75) of the same compound?
**A.** Its GI50 is 43.1 µM (inactive).

**Q.** And the GI50 (NCI-H23)?
**A.** The GI50 was > 100 µM (inactive).

**Q.** And the GI50 (SK-MEL-2)?
**A.** Its GI50 is > 100 µM (inactive).

**Q.** What about the GI50 (Hs-578T) of the same compound?
**A.** Its GI50 is 27.4 µM (inactive).

**Q.** What about the GI50 (CCRF-CEM) of the same compound?
**A.** The GI50 was > 100 µM (inactive).

**Q.** What about the GI50 (HCT-116) of the same compound?
**A.** Its GI50 is 33.4 µM (inactive).

Source: ChEMBL document CHEMBL1201862, “PubChem BioAssay data set” (2004)
